Among the data in ChEMBL document CHEMBL5465560, “Selectivity Literature for EUbOPEN Chemogenomic Library” (2024) are % of control, % binding and % of inhibition values, retold here.

Molecules are shown by their SMILES.

The target in assay [1] is T1, Rhodopsin kinase GRK7 (Homo sapiens) (UniProt Q8WTQ7).
T1 sequence (whole entry): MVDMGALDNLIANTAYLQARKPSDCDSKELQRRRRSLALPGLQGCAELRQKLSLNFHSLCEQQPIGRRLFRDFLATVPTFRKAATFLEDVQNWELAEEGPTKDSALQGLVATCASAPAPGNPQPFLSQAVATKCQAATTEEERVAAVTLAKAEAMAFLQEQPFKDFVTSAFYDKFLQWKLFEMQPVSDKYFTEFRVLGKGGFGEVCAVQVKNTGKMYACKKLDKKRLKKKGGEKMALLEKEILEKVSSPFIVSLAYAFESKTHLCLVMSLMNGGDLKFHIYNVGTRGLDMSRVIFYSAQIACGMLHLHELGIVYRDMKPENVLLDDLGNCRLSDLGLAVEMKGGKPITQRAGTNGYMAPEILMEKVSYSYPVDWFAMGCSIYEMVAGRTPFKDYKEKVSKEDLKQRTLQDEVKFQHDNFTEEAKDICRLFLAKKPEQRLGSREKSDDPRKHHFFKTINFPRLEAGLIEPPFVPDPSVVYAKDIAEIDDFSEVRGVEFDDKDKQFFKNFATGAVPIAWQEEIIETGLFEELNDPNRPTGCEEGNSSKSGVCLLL
As to the kind of experiment: Selectivity interaction (Kinase panel (Z-LYTE Assay)) EUB0001632a GRK7. The following applies: at 10 µM.

In assay [2] the target is Homeodomain-interacting protein kinase 2 (Homo sapiens, UniProt Q9H2X6). The assay can be described thus: Selectivity interaction (KinomeScan (DiscoverX)) EUB0000607a HIPK2. To be noted: at 10 µM.
The subject of assay [3] is Mast/stem cell growth factor receptor Kit (Homo sapiens), P10721 [D816H]. To be noted: at 10 µM.
For assay [4], the target named is T2, Myosin light chain kinase family member 4 (Homo sapiens) (UniProt Q86YV6).
T2 sequence (whole entry): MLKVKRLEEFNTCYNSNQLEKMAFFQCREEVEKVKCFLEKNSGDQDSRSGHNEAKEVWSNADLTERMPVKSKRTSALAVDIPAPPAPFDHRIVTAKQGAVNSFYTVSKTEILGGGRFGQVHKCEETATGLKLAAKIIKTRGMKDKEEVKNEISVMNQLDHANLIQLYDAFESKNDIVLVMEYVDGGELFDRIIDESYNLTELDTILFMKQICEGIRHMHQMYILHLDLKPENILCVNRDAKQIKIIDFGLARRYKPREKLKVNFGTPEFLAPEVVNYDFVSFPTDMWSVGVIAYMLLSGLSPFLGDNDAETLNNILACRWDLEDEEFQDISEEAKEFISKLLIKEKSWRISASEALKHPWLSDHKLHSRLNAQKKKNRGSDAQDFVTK
As to the kind of experiment: Selectivity interaction (KinomeScan (DiscoverX)) EUB0000229b MYLK4. The following applies: at 10 µM.

Assay [5] concerns the target T3, EKC/KEOPS complex subunit TP53RK (Homo sapiens) (UniProt Q96S44).
T3 sequence (whole entry): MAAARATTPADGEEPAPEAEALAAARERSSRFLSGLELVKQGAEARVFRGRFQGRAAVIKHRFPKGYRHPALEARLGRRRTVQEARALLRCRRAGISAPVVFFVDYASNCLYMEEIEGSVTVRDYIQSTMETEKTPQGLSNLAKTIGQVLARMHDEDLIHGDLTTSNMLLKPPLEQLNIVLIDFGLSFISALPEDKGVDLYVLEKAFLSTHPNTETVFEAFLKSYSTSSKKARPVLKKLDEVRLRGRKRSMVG
The assay can be described thus: Selectivity interaction (ActivX KiNativ screen (ex vivo kinase selectivity in human PBMCs)) EUB0001619a TP53RK. To be noted: PBMC, at 1 µM. It counts as cell-based.

Assay [6] addresses Cyclin-dependent kinase 16 (Homo sapiens) (UniProt Q00536). As to the kind of experiment: Selectivity interaction (ActivX KiNativ screen (ex vivo kinase selectivity in human PBMCs)) EUB0001619a CDK16. It counts as cell-based. To be noted: PBMC, at 1 µM.
The target of assay [7] is Serine/threonine-protein kinase N1 (Homo sapiens, UniProt Q16512). As to the kind of experiment: Selectivity interaction (ActivX KiNativ screen (kinase selectivity in THP-1 cell lysates)) EUB0000639a PKN1. The following applies: lysate, at 0.04 µM. Type of assay: subcellular.
The target of assay [8] is RAC-gamma serine/threonine-protein kinase (Homo sapiens, UniProt Q9Y243). The following applies: at 10 µM.
Assay [9] concerns the target Serine/threonine-protein kinase 25 (Homo sapiens) (UniProt O00506). The assay can be described thus: Selectivity interaction (ProQinase) EUB0000171b STK25.
For assay [10], the target named is Phosphatidylinositol 4,5-bisphosphate 3-kinase catalytic subunit alpha isoform (Homo sapiens) (UniProt P42336). As to the kind of experiment: Selectivity interaction (ProQinase) EUB0000171b PIK3CA.
Chain of Phosphatidylinositol 4,5-bisphosphate 3-kinase catalytic subunit alpha isoform (Homo sapiens) (P42336 whole entry, canonical isoform): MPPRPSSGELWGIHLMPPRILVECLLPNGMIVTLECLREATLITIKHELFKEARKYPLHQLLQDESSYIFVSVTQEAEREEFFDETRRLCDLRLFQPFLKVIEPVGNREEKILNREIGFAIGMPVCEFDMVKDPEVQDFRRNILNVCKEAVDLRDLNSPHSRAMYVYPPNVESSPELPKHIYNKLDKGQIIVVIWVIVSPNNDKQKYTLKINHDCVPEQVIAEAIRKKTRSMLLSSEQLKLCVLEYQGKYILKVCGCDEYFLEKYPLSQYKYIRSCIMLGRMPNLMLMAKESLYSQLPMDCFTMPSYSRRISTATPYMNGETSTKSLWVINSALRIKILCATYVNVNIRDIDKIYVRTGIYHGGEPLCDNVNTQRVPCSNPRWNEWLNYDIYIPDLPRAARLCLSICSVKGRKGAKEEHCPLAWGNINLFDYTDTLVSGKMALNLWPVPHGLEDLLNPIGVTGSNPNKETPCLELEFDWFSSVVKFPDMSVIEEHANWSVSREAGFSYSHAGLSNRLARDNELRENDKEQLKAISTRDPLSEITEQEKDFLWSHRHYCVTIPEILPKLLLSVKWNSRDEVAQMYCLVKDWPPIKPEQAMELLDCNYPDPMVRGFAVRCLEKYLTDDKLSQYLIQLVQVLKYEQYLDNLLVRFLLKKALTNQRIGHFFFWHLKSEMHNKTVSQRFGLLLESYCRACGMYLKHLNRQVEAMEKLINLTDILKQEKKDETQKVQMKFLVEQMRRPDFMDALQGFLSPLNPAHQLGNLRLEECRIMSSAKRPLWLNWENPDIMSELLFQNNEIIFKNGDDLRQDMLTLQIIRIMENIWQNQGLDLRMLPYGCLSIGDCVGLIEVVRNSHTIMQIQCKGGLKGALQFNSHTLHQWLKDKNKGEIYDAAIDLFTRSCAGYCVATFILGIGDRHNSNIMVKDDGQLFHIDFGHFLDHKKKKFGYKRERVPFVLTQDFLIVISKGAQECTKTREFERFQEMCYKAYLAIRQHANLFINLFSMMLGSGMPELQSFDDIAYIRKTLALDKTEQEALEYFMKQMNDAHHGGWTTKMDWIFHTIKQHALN
In assay [11] the target is Cyclin-dependent kinase 5/CDK5 activator 1 (Homo sapiens) (UniProt Q00535+Q15078). As to the kind of experiment: Selectivity interaction (ProQinase) EUB0000171b CDK5. Type of assay: protein-complex assay. The following applies: at 1 µM.
In assay [12] the target is Casein kinase I isoform gamma-2 (Homo sapiens) (UniProt P78368). As to the kind of experiment: Selectivity interaction (KinomeScan (DiscoverX)) EUB0000045b CSNK1G2.
Assay [13] has as its target Ribosomal protein S6 kinase alpha-1 (Homo sapiens, UniProt Q15418). The assay can be described thus: Selectivity interaction (KinomeScan (DiscoverX)) EUB0000045b RPS6KA1.
Assay [14] has as its system Mast/stem cell growth factor receptor Kit (Homo sapiens), P10721 [D816H]. As to the kind of experiment: (§1) Selectivity interaction (KinomeScan (DiscoverX)) EUB0000045b KIT.
The test system of assay [15] is Mast/stem cell growth factor receptor Kit (Homo sapiens), P10721 [L576P]. Described as §1.
Assay [16] deals with Mast/stem cell growth factor receptor Kit (Homo sapiens), P10721 [V559D,T670I]. The description is as §1.
Assay [17] concerns Mast/stem cell growth factor receptor Kit (Homo sapiens), P10721 [A829P]. The assay is described as §1.
Chain of Mast/stem cell growth factor receptor Kit (Homo sapiens), P10721 [A829P] (P10721 whole entry A829P): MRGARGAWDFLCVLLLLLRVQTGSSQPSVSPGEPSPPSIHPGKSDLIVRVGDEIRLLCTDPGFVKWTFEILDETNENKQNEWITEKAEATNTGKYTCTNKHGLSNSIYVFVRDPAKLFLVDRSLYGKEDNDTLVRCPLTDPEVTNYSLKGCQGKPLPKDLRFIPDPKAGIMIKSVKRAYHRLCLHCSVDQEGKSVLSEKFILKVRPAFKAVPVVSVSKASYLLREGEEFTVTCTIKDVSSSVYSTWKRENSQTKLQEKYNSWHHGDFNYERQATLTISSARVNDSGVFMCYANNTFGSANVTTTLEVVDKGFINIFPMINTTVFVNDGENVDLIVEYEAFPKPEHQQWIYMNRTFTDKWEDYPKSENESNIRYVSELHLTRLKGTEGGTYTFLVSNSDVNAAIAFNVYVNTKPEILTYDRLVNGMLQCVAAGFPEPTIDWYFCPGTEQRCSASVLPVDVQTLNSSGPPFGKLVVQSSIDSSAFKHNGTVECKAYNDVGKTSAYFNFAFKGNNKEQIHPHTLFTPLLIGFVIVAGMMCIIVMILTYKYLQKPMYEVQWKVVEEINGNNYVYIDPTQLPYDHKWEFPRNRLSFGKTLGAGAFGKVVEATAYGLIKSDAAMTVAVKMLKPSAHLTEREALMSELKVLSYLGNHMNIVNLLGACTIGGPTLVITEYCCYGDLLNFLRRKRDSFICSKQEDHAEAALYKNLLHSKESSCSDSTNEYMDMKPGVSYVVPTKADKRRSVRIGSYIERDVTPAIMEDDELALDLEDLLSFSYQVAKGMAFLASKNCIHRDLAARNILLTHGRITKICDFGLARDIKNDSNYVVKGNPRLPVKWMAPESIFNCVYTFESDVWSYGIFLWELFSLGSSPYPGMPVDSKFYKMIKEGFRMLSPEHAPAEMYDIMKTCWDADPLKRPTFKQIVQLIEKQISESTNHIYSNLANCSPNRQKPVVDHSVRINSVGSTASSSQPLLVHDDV
The test system of assay [18] is Mast/stem cell growth factor receptor Kit (Homo sapiens), P10721 [V559D,V654A]. The assay is described as §1.
Chain of Mast/stem cell growth factor receptor Kit (Homo sapiens), P10721 [V559D,V654A] (P10721 whole entry V559D/V654A): as the sequence (P10721 whole entry A829P) above, with V559D, V654A, P829A counted along it
For assay [19], the target named is Mast/stem cell growth factor receptor Kit (Homo sapiens, UniProt P10721). Described as §1.
Chain of Mast/stem cell growth factor receptor Kit (P10721 whole entry): as the sequence (P10721 whole entry A829P) above, with P829A counted along it
The subject of assay [20] is Mast/stem cell growth factor receptor Kit (Homo sapiens), P10721 [D816V]. The description is as §1.
Assay [21] has as its system Mast/stem cell growth factor receptor Kit (Homo sapiens), P10721 [V559D]. The description is as §1.

Chain of Mast/stem cell growth factor receptor Kit (Homo sapiens), P10721 [D816H] (P10721 whole entry D816H): as the sequence (P10721 whole entry A829P) above, with D816H, P829A counted along it

In the case of `Cn1cc(-n2cnc3c(NCc4nc5cc(Cl)c(Cl)cc5[nH]4)nc(N4CCOCC4)nc32)cn1`, the % of control in [1] is -0.279%.

With `CNC(=O)Nc1ccc(-c2nc(N3CC4CCC(C3)O4)c3cnn(C4CCC5(CC4)OCCO5)c3n2)cc1`, the % of control in assay [2] is 100%.

On to `Cc1cc([C@@H](C)Nc2ccccc2C(=O)O)c2nc(N3CCOCC3)cc(=O)n2c1` [AZD-6482], for which the % of control in assay [3] was 88%.

For `COc1cc(N(C)c2ccnc3ccc(C(F)(F)F)cc23)cc(OC)c1OC`, the % binding in assay [4] stood at 98%.

As to `N#Cc1cccc(-c2c[nH]c3ncnc(N4CCOCC4)c23)c1`, the % of inhibition in [5] is -4%; in [6] it was 25%.

With `CC[C@@H]1[C@H](F)C(=O)N[C@@H]1COc1nccc2cc(C(N)=O)c(OC)cc12` [ZIMLOVISERTIB], the % of inhibition in assay [7] was -5.1%.

Regarding `CCN(CC)CCCCNc1ncc2cc(-c3cc(OC)cc(OC)c3)c(NC(=O)NC(C)(C)C)nc2n1`, the % of control in assay [8] amounted to 100%.

On to `C=CC(=O)Nc1cccc(C(=O)Nc2ccc(Nc3cc(-c4[nH]c(SC)nc4C)ccn3)cc2)c1`, for which the % of control amounted to 88% in assay [9] (at 1 µM); 95% in assay [9] (at 5 µM); 118% in [10] (at 1 µM); 106% in assay [10] (at 5 µM); 74% in assay [11].

As for `C=CC(=O)Nc1cc(-n2c(=O)ccc3cnc4ccc(-c5ccc(NS(C)(=O)=O)cc5)cc4c32)ccc1C`, the % of control in [12] (at 1 µM) was determined as 100%; in [12] (at 10 µM), 62%; in [13] (at 1 µM), 76%; in assay [13] (at 10 µM), 67%; in [14] (at 1 µM), 99%; in assay [14] (at 10 µM) it was 100%. The % of control turned out to be 100% in assay [15] (at 1 µM); 83% in assay [15] (at 10 µM); 100% in assay [16] (at 1 µM); 91% in assay [16] (at 10 µM); 74% in [17] (at 1 µM); 81% in [17] (at 10 µM). Moreover, the % of control is 100% in [18] (at 1 µM); 100% in [18] (at 10 µM); 89% in assay [19] (at 1 µM); 89% in [19] (at 10 µM); 69% in assay [20] (at 1 µM); 73% in [20] (at 10 µM). Besides, the values for the % of control in assay [21] (at 1 µM) and in [21] (at 10 µM) were 87% and 88%, respectively.
